According to patent US9328138B2 (priority 2011, dated 2016):
Where a name gives a salt, the structure may show the parent alone.

Tests used:
[1] = target: T1, HCV genotype 1b (BK) NS3 modified enzyme with a R155K mutation (Hepatitis C virus genotype 1b, UniProt P26663, R1181K); test: HCV NS3 protease time-resolved fluorescence (TRF) assay, genotype 1b R155K; format: biochemical; details: Ki 1b R155K
T1 construct: HCV genotype 1b (BK) NS3 modified enzyme
Method in brief: (§1)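 Inhibitor titrations are mixed with NS3/NS4A in pH 7.5 HEPES buffer containing 10 mM DTT and 15% glycerol for 10 min before substrate (25 nM final) is added. After 6 h at room temperature, delayed fluorescence is read and fitted to a four-parameter curve for IC50.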

[2] = target: HCV NS3 protease genotype 3a (3A-1) (Hepatitis C virus genotype 3a, UniProt Q81258); test: HCV NS3 protease time-resolved fluorescence (TRF) assay, genotype 3a; format: biochemical; details: Ki 3a
Method in brief: as §1

[3] = first of two values printed in the cell (not explained)
[4] = second of two values printed in the cell (not explained)
[5] = genotype 1b (BK) NS3 R155K, single value

| SMILES | Ki [1, 3] | Ki [1, 4] | Ki [2] | Ki [1, 5] |
| --- | --- | --- | --- | --- |
| C=C[C@@H]1C[C@]1(NC(=O)[C@@H]1C[C@@H]2CN1C(=O)[C@H](C1CCCCC1)NC(=O)O[C@@H]1C[C@H]1CCCCCc1c(nc3ccccc3c1OC1CCCN(C)C1)O2)C(=O)NS(=O)(=O)C1(C)CC1 (stereo partly drawn) [Example 291, 3-{[(1aR,5S,8S,10R,22aR)-5-cyclohexyl-8-{[(1R,2S)-2-ethenyl-1-{[(1-methylcyclopropyl)sulfonyl]carbamoyl}cyclopropyl]carbamoyl}-3,6-dioxo-1,1a,3,4,5,6,9,10,18,19,20,21,22,22a-tetradecahydro-8H-7,10-methanocyclopropa[18,19][1,10,3,6]dioxadiazacyclononadecino[11,12-b]quinolin-17-yl]oxy}-1-methylpiperidinium formate] | 0.01 nM | 0.085 nM | 0.774 nM | – |
| C=C[C@@H]1C[C@]1(NC(=O)[C@@H]1C[C@@H]2CN1C(=O)[C@H](C1CCCCC1)NC(=O)O[C@@H]1C[C@H]1CCCCCc1c(nc3ccccc3c1OCCCN1CCN(C)CC1)O2)C(=O)NS(=O)(=O)C1(C)CC1 [Example 251, (1aR,5S,8S,10R,22aR)-5-cyclohexyl-N-[(1R,2S)-2-ethenyl-1-{[(1-methylcyclopropyl)sulfonyl]carbamoyl}cyclopropyl]-17-[3-(4-methylpiperazin-1-yl)propoxy]-3,6-dioxo-1,1a,3,4,5,6,9,10,18,19,20,21,22,22a-tetradecahydro-8H-7,10-methanocyclopropa[18,19][1,10,3,6]dioxadiazacyclononadecino[11,12-b]quinoline-8-carboxamide] | 0.015 nM | 0.051 nM | 1.15 nM | – |
| C=C[C@@H]1C[C@]1(NC(=O)[C@@H]1C[C@@H]2CN1C(=O)[C@H](C1CCCCC1)NC(=O)O[C@@H]1C[C@H]1CCCCCc1c(nc3ccccc3c1CN1CCN(C)CC1)O2)C(=O)NS(=O)(=O)C1(C)CC1 [Example 266, potassium ({(1R,2S)-1-[({(1aR,5S,8S,10R,22aR)-5-cyclohexyl-17-[(4-methylpiperazin-1-yl)methyl]-3,6-dioxo-1,1a,3,4,5,6,9,10,18,19,20,21,22,22a-tetradecahydro-8H-7,10-methanocyclopropa[18,19][1,10,3,6]dioxadiazacyclononadecino[11,12-b]quinolin-8-yl}carbonyl)amino]-2-ethenylcyclopropyl}carbonyl)[(1-methylcyclopropyl)sulfonyl]azanide] | 0.02 nM | 0.044 nM | 7.5 nM | – |
| C=C[C@@H]1C[C@]1(NC(=O)[C@@H]1C[C@@H]2CN1C(=O)[C@H](C1CCCCC1)NC(=O)O[C@@H]1C[C@H]1CCCCCc1c(nc3ccccc3c1OCCCN1CCC(C(F)(F)F)CC1)O2)C(=O)NS(=O)(=O)C1(C)CC1 [Example 167] | – | – | 41 nM | 1.3 nM |
| CCOc1c2c(nc3ccccc13)O[C@@H]1C[C@@H](C(=O)N[C@]3(C(=O)NS(=O)(=O)C4CC4)C[C@H]3CC)N(C1)C(=O)[C@H](C1CCCC1)NC(=O)O[C@@H]1CCC[C@H]1CC/C=C/C2 [Example 2, (3aR,7S,10S,12R,21E,24aS)-7-cyclopentyl-N-{(1R,2R)-1-[(cyclopropylsulfonyl)carbamoyl]-2-ethylcyclopropyl}-19-ethoxy-5,8-dioxo-1,2,3,3a,5,6,7,8,11,12,20,23,24,24a-tetradecahydro-10H-9,12-methanocyclopenta[18,19][1,10,3,6] dioxadiazacyclononadecino[11,12-b] quinoline-10-carboxamide] | – | – | 31 nM | 2.7 nM |
| CC1(S(=O)(=O)NC(=O)[C@@]23C[C@H]2/C=C\CCCCC[C@@H]2NC(=O)O[C@@H]4C[C@H]4CCC/C=C/c4c(nc5ccccc5c4OCCN4CCCC4)O[C@@H]4C[C@@H](C(=O)N3)N(C4)C2=O)CC1 [Example 299, (1aR,5S,11Z,12aS,13aR,16S,19R,27E, 31aR)-N-[(1-methylcyclopropyl)sulfonyl]-3,15,33-trioxo-26-[2-(pyrrolidin-1-yl)ethoxy]-1,1a,3,4,5,6,7,8,9,10,12a,13,15,16,18,19,29, 30,31,31a-icosahydro-5,17:16,19-dimethanodicyclopropa[12,13:28,29][1,20,3, 14,17]dioxatriazacyclononacosino[21,22-b]quinoline-13a(14H)-carboxamide] | – | – | 3.8 nM | 0.19 nM |
| C=C[C@@H]1C[C@]1(NC(=O)[C@@H]1C[C@@H]2CN1C(=O)[C@H](C(C)(C)C)NC(=O)O[C@@H]1C[C@H]1CCCCCc1c(nc3ccccc3c1OCCCNCCCCc1ccccc1)O2)C(=O)NS(=O)(=O)C1(C)CC1 [Example 198, (1aR,5S,8S,10R,22aR)-5-tert-butyl-N-[(1R,2S)-2-ethenyl-1-{[(1-methylcyclopropyl)sulfonyl]carbamoyl}cylcopropoyl]-3,6-dioxo-17-{3-[(4-phenylbutyl)amino]propoxy}-1,1a,3,4,5,6,9,10,18,19,20,21,22,22a-tetra decahydro-8H-7,10-methanocyclopropa[18,19][1,10,3,6] dioxadiazacyclononadecino[11,12-b] quinoline-8-carboxamide] | – | – | 0.77 nM | 0.05 nM |
| C=C[C@@H]1C[C@]1(NC(=O)[C@@H]1C[C@@H]2CN1C(=O)[C@H](C1CCCCC1)NC(=O)O[C@@H]1C[C@H]1CCCCCc1c(nc3ccccc3c1OCCCNC1CC1)O2)C(=O)NS(=O)(=O)C1(C)CC1 [Example 241, N-(3-{[(1aR,5S,8S,10R,22aR)-5-cyclohexyl-8-{[(1R,2S)-2-ethenyl-1-{[(1-methylcyclopropyl)sulfonyl]carbamoyl}cyclopropyl]carbamoyl}-3,6-dioxo-1,1a,3,4,5,6,9,10,18,19,20,21,22,22a-tetradecahydro-8H-7,10-methanocyclopropa[18,19][1,10,3,6]dioxadiazacyclononadecino[11,12-b]quinolin-17-yl]oxy}propyl)cyclopropanaminium formate] | 0.021 nM | 0.162 nM | 2.79 nM | – |
| C=C[C@@H]1C[C@]1(NC(=O)[C@@H]1C[C@@H]2CN1C(=O)[C@H](C1CCCC1)NC(=O)O[C@@H]1CCC[C@H]1CC/C=C/Cc1c(nc3ccccc3c1OCCN1CC3(CCC3)C1)O2)C(=O)NS(=O)(=O)C1(C)CC1 [Example 86, (3aR,7S,10S,12R,21E,24aS)-19-[2-(2-azaspiro[3.3]hept-2-yl)ethoxy]-7-cyclopentyl-N-[(1R,2S)-2-ethenyl-1-{[(1-methylcyclopropyl)sulfonyl]carbamoyl}cyclopropyl]-5,8-dioxo-1,2,3,3a,5,6,7,8,11,12,20,23,24,24a-tetradecahydro-10H-9,12-methanocyclopenta[18,19] [1,10,3,6]dioxadiazacyclononadecino [11,12-b]quinoline-10-carboxamide] | – | – | 4.4 nM | 0.23 nM |
| C=C[C@@H]1C[C@]1(NC(=O)[C@@H]1C[C@@H]2CN1C(=O)[C@H](C(C)(C)C)NC(=O)O[C@@H]1C[C@H]1CCCCCc1c(nc3cc(C)ccc3c1OCCCN1CC[C@H](N(C)C)C1)O2)C(=O)NS(=O)(=O)C1(C)CC1 [Example 148, (1aR,5S,8S,10R,22aR)-5-tert-butyl-17-{3-[(3S)-3-(dimethylamino)pyrrolidin-1-yl]propoxy}-N-[(1R,2S)-2-ethenyl-1-{[(1-methylcyclopropyl)ulfonyl]carbamoyl}cyclopropyl]-14-methyl-3,6-dioxo-1,1a,3,4,5,6,9,10,18,19,20,21,22,22a-tetradecahydro-8H-7,10-methanocyclopropa[18,19] [1,10,3,6]dioxadiazacyclononadecino [11,12-b]quinoline-8-carboxamide] | – | – | 0.74 nM | 0.065 nM |
| C=C[C@@H]1C[C@]1(NC(=O)[C@@H]1C[C@@H]2CN1C(=O)[C@H](C(C)(C)C)NC(=O)O[C@@H]1C[C@H]1CCCCCc1c(nc3ccccc3c1OCCCN(C)C(C)C(O)c1ccccc1)O2)C(=O)NS(=O)(=O)C1(C)CC1 (stereo partly drawn) [Example 190, (1aR,5S,8S,10R,22aR)-5-tert-butyl-N-[(1R,2S)-2-ethenyl-1-{[(1-methylcyclopropyl)sulfonyl]carbamoyl}cyclopropyl]-17-{3-[(1-hydroxy-1-phenylpropan-2-yl)(methyl)amino]propoxy}-3,6-dioxo-1,1a,3,4,5,6,9,10,18,19,20,21,22,22a-tetradecahydro-8H-7,10-methanocyclopropa[18,19][1,10,3,6] dioxadiazacyclononadecino[11,12-b] quinoline-8-carboxamide] | – | – | 1.5 nM | 0.074 nM |
| C=C[C@@H]1C[C@]1(NC(=O)[C@@H]1C[C@@H]2CN1C(=O)[C@H](C(C)(C)C)NC(=O)O[C@@H]1C[C@H]1CCCCCc1c(nc3ccccc3c1OCCCN1CCC[C@@H]1C(N)=O)O2)C(=O)NS(=O)(=O)C1(C)CC1 [Example 208, (1aR,5S,8S,10R,22aR)-5-tert-butyl-17-{3-[(2R)-2-carbamoylpyrrolidin-1-yl]propoxy}-N-[(1R,2S)-2-ethenyl-1-{[(1-methylcyclopropyl)sulfonyl]carbamoyl}cyclopropyl]-3,6-dioxo-1,1a,3,4,5,6,9,10,18,19,20,21,22,22a-tetradecahydro-8H-7,10-methanocyclopropa[18,19][1,10,3,6] dioxadiazacyclononadecino[11,12-b] quinoline-8-carboxamide] | – | – | 1 nM | 0.11 nM |
| C=C[C@@H]1C[C@]1(NC(=O)[C@@H]1C[C@@H]2CN1C(=O)[C@H](C1CCCC1)NC(=O)O[C@@H]1CCC[C@H]1CC/C=C/Cc1c(nc3ccccc3c1OCCCO)O2)C(=O)NS(=O)(=O)C1CC1 [Example 72, (3aR,7S,10S,12R,21E,24aS)-7-cyclopentyl-N-{(1R,2S)-1-[(cyclopropylsulfonyl)carbamoyl]-2-ethenylcyclopropyl}-19-(3-hydroxypropoxy)-5,8-dioxo-1,2,3,3a,5,6,7,8,11,12,20,23,24,24a-tetradecahydro-10H-9,12-methanocyclopenta[18,19][1,10,3,6]dioxadiazacyclononadecino[11,12-b]quinoline-10-carboxamide] | – | – | 1.1 nM | < 0.016 nM |
